IC50 data for 6 molecules are collected here from patent publication US20260355212A1 (priority 2022, published 2026).

In one assay the target is SARS-CoV-2 Mpro (Severe acute respiratory syndrome coronavirus 2, UniProt P0DTD1). Kind of assay: SARS-CoV-2 Mpro enzymatic inhibition assay (fluorescence). Format: biochemical. The method, boiled down:
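A fluorescence readout (340 nm excitation, 490 nm emission) was taken after the substrate reaction ran 60 min at 30° C. Before substrate addition, E. coli-expressed protease and compound (3-fold dilutions, 10 doses, duplicates) sat together 30 min at room temperature. Percent inhibition was fitted by variable-slope nonlinear regression to give IC50.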

The target in the next assay is HCoV-229E Mpro (Human coronavirus 229E, UniProt P0C6X1). Nature of the assay: HCoV-229E Mpro enzymatic inhibition assay (fluorescence). The format is biochemical.
Another assay deals with HCoV-HKU1 Mpro (Human coronavirus HKU1, UniProt P0C6X2). Nature of the assay: HCoV-HKU1 Mpro enzymatic inhibition assay (fluorescence). Format: biochemical. Put shortly: (§1)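 Recombinant Mpro from E. coli was pre-incubated with compound (3-fold, 10-point dilutions, duplicates) for 30 min at room temperature, then fluorogenic peptide substrate was added and fluorescence read at Ex/Em 340/490 nm after 60 min at 30 °C. IC50 came from four-parameter fits of background-corrected inhibition.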

Another assay has as its target MERS Mpro (Middle East respiratory syndrome-related coronavirus, UniProt K9N7C7). Kind of assay: biochemical. On the set-up: species or system MERS-CoV.
For another assay, the target named is HCoV-NL63 Mpro (Human coronavirus NL63, UniProt P0C6X5). Kind of assay: HCoV-NL63 Mpro enzymatic inhibition assay (fluorescence). Format: biochemical. Put shortly: as §1
Another assay addresses HCoV-OC43 Mpro (Human coronavirus OC43, UniProt P0C6X6). Nature of the assay: HCoV-OC43 Mpro enzymatic inhibition assay (fluorescence). Format: biochemical. The method, boiled down: as §1
The next assay addresses SARS-CoV-1 Mpro (Severe acute respiratory syndrome coronavirus, UniProt P0C6X7). Kind of assay: biochemical.

Where two headings read alike, the source gives them in different places.

Chain of HCoV-NL63 Mpro (P0C6X5 2940-3242 limits assumed): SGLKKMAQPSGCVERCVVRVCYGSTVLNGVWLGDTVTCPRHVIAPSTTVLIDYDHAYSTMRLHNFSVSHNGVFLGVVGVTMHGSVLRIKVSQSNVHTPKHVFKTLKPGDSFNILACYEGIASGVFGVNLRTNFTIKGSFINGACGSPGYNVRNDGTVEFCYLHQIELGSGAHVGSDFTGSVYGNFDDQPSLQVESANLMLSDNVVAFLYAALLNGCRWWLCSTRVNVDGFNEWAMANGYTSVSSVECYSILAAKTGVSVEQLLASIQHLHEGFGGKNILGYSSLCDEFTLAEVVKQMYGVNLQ
Chain of HCoV-229E Mpro (P0C6X1 2966-3267 limits assumed): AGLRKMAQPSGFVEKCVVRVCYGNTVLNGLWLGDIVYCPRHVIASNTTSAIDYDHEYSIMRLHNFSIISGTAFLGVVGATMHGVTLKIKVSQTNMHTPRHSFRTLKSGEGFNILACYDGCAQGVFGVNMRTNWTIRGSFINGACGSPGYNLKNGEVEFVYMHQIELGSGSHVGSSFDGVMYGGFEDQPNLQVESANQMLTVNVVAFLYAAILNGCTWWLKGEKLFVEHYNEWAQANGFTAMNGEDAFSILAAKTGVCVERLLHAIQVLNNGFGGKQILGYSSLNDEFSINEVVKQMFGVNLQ
Chain of HCoV-OC43 Mpro (P0C6X6 3247-3549 limits assumed): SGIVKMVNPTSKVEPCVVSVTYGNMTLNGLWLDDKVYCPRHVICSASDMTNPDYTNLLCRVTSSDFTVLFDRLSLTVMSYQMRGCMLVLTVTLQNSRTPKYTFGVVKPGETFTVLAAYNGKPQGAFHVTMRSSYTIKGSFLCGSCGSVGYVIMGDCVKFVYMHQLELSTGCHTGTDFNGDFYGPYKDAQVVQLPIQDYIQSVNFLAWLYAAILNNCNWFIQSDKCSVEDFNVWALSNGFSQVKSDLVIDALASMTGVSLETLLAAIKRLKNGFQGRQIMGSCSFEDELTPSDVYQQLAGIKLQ
Chain of MERS Mpro (K9N7C7 3248-3553 limits assumed): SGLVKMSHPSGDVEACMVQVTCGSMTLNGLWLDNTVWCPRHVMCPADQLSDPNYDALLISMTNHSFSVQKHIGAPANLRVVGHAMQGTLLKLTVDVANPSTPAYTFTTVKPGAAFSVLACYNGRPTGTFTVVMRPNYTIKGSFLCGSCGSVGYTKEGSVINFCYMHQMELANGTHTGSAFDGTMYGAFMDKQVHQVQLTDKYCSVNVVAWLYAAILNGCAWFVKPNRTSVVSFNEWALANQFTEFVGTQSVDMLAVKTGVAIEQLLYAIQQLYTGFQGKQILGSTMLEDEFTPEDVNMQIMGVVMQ
Chain of HCoV-HKU1 Mpro (P0C6X2 3335-3637 limits assumed): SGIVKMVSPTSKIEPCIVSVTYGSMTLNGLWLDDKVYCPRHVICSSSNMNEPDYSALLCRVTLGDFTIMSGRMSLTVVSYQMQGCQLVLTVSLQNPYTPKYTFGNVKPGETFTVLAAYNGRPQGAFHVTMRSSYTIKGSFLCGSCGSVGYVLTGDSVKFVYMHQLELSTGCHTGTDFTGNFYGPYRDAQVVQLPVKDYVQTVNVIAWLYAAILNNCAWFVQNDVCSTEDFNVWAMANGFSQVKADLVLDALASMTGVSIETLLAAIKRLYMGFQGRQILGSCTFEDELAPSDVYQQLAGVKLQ

As usually defined, the IC50 is the point on the concentration scale where inhibition reaches its midpoint. As to `O=C[C@H](C[C@@H]1CCNC1=O)NC(=O)[C@@H]1C[C@@H](C2CCCCC2)CN1C(=O)c1cc2cccc(Cl)c2[nH]1` [Compound 81, (2S,4S)-1-(7-chloro-1H-indole-2-carbonyl)-4-cyclohexyl-N—((S)-1-oxo-3-((S)-2-oxopyrrolidin-3-yl)propan-2-yl)pyrrolidine-2-carboxamide], the IC50 against SARS-CoV-2 Mpro is 35.3 nM; against HCoV-229E Mpro, 78.2 nM; against HCoV-HKU1 Mpro, 37 nM; at MERS Mpro it was 2980 nM; against HCoV-NL63 Mpro it was 1050 nM; on HCoV-OC43 Mpro, 173 nM. The molecule also showed a half-inhibitory concentration (IC50) against SARS-CoV-1 Mpro of 125 nM.
On to `N#Cc1ccc2cc(C(=O)N3CC4(CC4)C[C@H]3C(=O)N[C@H](C=O)C[C@@H]3CCNC3=O)[nH]c2c1` [Compound 82, (S)-5-(6-Cyano-1H-indole-2-carbonyl)-N—((S)-1-oxo-3-((S)-2-oxopyrrolidin-3-yl)propan-2-yl)-5-azaspiro[2.4]heptane-6-carboxamide], for which the IC50 at SARS-CoV-2 Mpro is 35.5 nM; at HCoV-229E Mpro, 26.1 nM; on HCoV-HKU1 Mpro it was 10.6 nM; against MERS Mpro it was 176 nM; at HCoV-NL63 Mpro, 30.1 nM; against HCoV-OC43 Mpro, 33.7 nM. The IC50 against SARS-CoV-1 Mpro stood at 35.1 nM.
On to `CC1(C)[C@@H]2[C@@H](C(=O)N[C@H](C=O)C[C@@H]3CCNC3=O)N(C(=O)c3cc4ncccc4[nH]3)C[C@@H]21` [Compound 83, (1R,2S,5S)-6,6-dimethyl-N—((S)-1-oxo-3-((S)-2-oxopyrrolidin-3-yl)propan-2-yl)-3-(1H-pyrrolo[3,2-b]pyridine-2-carbonyl)-3-azabicyclo[3.1.0]hexane-2-carboxamide], for which the half-maximal inhibitory concentration (IC50) at SARS-CoV-2 Mpro came out at 35.5 nM; at HCoV-229E Mpro it was 46.3 nM; against HCoV-HKU1 Mpro, 39 nM; against MERS Mpro, 436 nM; against HCoV-NL63 Mpro, 58.9 nM; against HCoV-OC43 Mpro, 81.3 nM. The midpoint of inhibition at SARS-CoV-1 Mpro, the IC50, lay at 116 nM.
Take `O=C[C@H](C[C@@H]1CCNC1=O)NC(=O)[C@@H]1CC2(CCC2)CN1C(=O)C1(c2ccccc2)CC1` [Compound 84, (S)—N—((S)-1-Oxo-3-((S)-2-oxopyrrolidin-3-yl)propan-2-yl)-6-(1-phenylcyclopropanecarbonyl)-6-azaspiro[3.4]octane-7-carboxamide]: the IC50 was found to be 36 nM against SARS-CoV-2 Mpro; 47.6 nM against HCoV-229E Mpro; 17.3 nM at HCoV-HKU1 Mpro; 703 nM against MERS Mpro; 185 nM on HCoV-NL63 Mpro; 41.2 nM on HCoV-OC43 Mpro. Besides, on SARS-CoV-1 Mpro, 88.3 nM corresponded to half-maximal inhibition (IC50).
As for `Cc1cccc2[nH]c(C(=O)N3C[C@H]4[C@@H]([C@H]3C(=O)N[C@H](C=O)C[C@@H]3CCNC3=O)C4(C)C)cc12` [Compound 85, (1R,2S,5S)-6,6-Dimethyl-3-(4-methyl-1H-indole-2-carbonyl)-N—((S)-1-oxo-3-((S)-2-oxopyrrolidin-3-yl)propan-2-yl)-3-azabicyclo[3.1.0]hexane-2-carboxamide], the concentration for half-maximal inhibition (IC50) on SARS-CoV-2 Mpro (mean, 25 nM protein, 25 μM substrate, 30 min pre-incubation, 60 min at 30° C., read-out: Mpro_SARS-CoV-2 mean IC50) was found to be 36.7 nM; at HCoV-229E Mpro it was 34.6 nM; at HCoV-HKU1 Mpro, 23.2 nM; against MERS Mpro, 259 nM; against HCoV-NL63 Mpro, 53.2 nM; at HCoV-OC43 Mpro it was 47.9 nM. This molecule displayed an IC50 against SARS-CoV-1 Mpro of 48.2 nM.
As to `CC1(C)[C@@H]2[C@@H](C(=O)N[C@H](C=O)C[C@@H]3CCNC3=O)N(C(=O)CC3CCOCC3)C[C@@H]21` [Compound 86, (1R,2S,5S)-6,6-Dimethyl-N—((S)-1-oxo-3-((S)-2-oxopyrrolidin-3-yl)propan-2-yl)-3-(2-(tetrahydro-2H-pyran-4-yl)acetyl)-3-azabicyclo[3.1.0]hexane-2-carboxamide], the IC50 is 39.7 nM on SARS-CoV-2 Mpro; 34.2 nM at HCoV-229E Mpro; 33.7 nM on HCoV-HKU1 Mpro; 318 nM on MERS Mpro; 78.8 nM against HCoV-NL63 Mpro; 52.5 nM at HCoV-OC43 Mpro. Moreover, the 50% inhibitory concentration (IC50) on SARS-CoV-1 Mpro came to 69.5 nM.
